Blank lines part the entries; values can stand above or below the compound they belong to. Where a SMILES comes first, the peptide text is derived from it. [ ]: non-standard residue; d: D form. Orn = NCCC[C@H](N)C(=O)O
Tests used:
E. coli, (EC) = experiment: Bacterial growth by optical density, peptides with or without surfactants; format: cell-based, Escherichia coli
Method: Bacteria E. coli, (EC) and S. aureus, (SA) were grown in LB media at 37° C. with continuous shaking for 24 hours. The bacterial concentration was then adjusted such that the absorbance at 600 (A600) was controlled to ca 0.2 unit. The bacteria suspensions with the peptides were incubated in 96-well tissue culture plates. The total medium volume in each well was […]. […] Controls with media only and media with bacteria only were run alongside the peptide bacteria mixed suspensions. Measurements were taken at time t=0, t=20 and t=72 hours using optical density cell plate reader. The optical density (OD) is representative of the relative amount of bacterial growth within the medium.
The antibacterial activities of the designed short peptides in the presence of selected surfactants were investigated to determine if the peptides would sustain their antibacterial performance when surfactants are present. Bacteria E. coli, (EC) and S. aureus, (SA) were grown in LB media at 37° C. with continuous shaking for 24 hours. The bacterial concentrations were then adjusted such that the absorbance at 600 (A600) was controlled to ca 0.2 unit. The bacteria suspensions with the peptides were incubated in 96-well tissue culture plates. The total medium volume in each well was […]. […] Controls used were (i) media only, (ii) media with bacteria only and (iii) bacteria with media containing peptides at a particular concentration. These were run alongside the peptide+bacteria and selected surfactant mixed suspensions. Measurements were taken at time t=0, t=20 and t=72 hours using optical density cell plate reader. Surfactants were added such that the final concentration was 1% within the wells.

[1] = MTT viability of fibroblasts over three days; format: cell-based, human; settings: human, adult fibroblasts (HDFa cells)
Method: (§1) MTT assay: Cell viability and proliferation is widely assessed by the MTT assay as already described previously.
(§2) The fibroblasts cells, Neonatal (HDFn) and Adult (HDFa), were both grown until greater than 80% confluent. […] After 24 hour incubation the culture medium was replaced with fresh medium containing an appropriate amount of the peptide for investigation.
(§3) The viability of the fibroblasts, Adult (HDFa) and Neonatal (HDFn) cells in the presence of surfactants was tested by MTT assay over three days relative to control wells containing cells only.

in vitro = format: cell-based; settings: human, neonatal fibroblasts (HDFn cells)
Method: as §1
The fibroblasts cells, Neonatal (HDFn) and Adult (HDFa), were both grown until greater than 80% confluent. The cells were then harvested and seeded into micro well plate at cell densities of 5000 cells/well in a volume […] of medium. After 24 hour incubation the culture medium was replaced with fresh medium containing an appropriate amount of the peptide for investigation.

[2] = tested on: HeLa and HL60 cancer cell lines; settings: 24 h
Method: Antitumor activities of peptides were measured using the 3-(4,5-dimethylthiazol-2-yl)-2,-diphenyl tetrazolium bromide (MTT) assay, and the IC50 value was calculated as the concentration of peptide that induced 50% growth inhibition compared to the untreated control.
HeLa and HL60 cells were seeded in 96-well plates (10^5 cells/well) in a complete medium [Iscove's modified dulbecco's medium (IMDM)] with 10% fetal bovine serum (FBS) for 24 h before peptide treatment. […] Following incubation with peptides, 20 μL of a 5 mg/ml solution MTT reagent was added to each well and incubated for 4 h at 37° C. After removing the supernatant, 150 μL of dimethyl sulfoxide (DMSO) was added to dissolve the formazan crystals that remained in the wells. The absorbance was determined using a microplate ELISA Reader at 570 nm. Wells without cells for blanking the spectrophotometer and the cells without peptides were taken as negative controls.

[3] = tested on: fibroblasts Adult (HDFa) cells; experiment: MTT viability of fibroblasts over three days; format: cell-based, human
Method: as §1, §2, §3

SMILES: CC1(C)S[C@@H]2[C@H](NC(=O)[C@H](N)c3ccccc3)C(=O)N2[C@H]1C(=O)O [Ampicillin, ampicillin]
bacterial growth (optical density) (E. coli, (EC); T = 0 HOUR, NO SURF, 25 μM): 0.20
bacterial growth (optical density) (E. coli, (EC); T = 0 HOUR, NO SURF, 50 μM): 0.20
bacterial growth (optical density) (E. coli, (EC); T = 0 HOUR, NO SURF, 100 μM): 0.19
bacterial growth (optical density) (E. coli, (EC); T = 0 HOUR, with 1% C12TAB, 25 μM): 0.27
bacterial growth (optical density) (E. coli, (EC); T = 0 HOUR, with 1% C12TAB, 50 μM): 0.26
bacterial growth (optical density) (E. coli, (EC); T = 0 HOUR, with 1% C12TAB, 100 μM): 0.27
bacterial growth (optical density) (E. coli, (EC); T = 0 HOUR, with 1% F127, 25 μM): 0.20
bacterial growth (optical density) (E. coli, (EC); T = 0 HOUR, with 1% F127, 50 μM): 0.20
bacterial growth (optical density) (E. coli, (EC); T = 0 HOUR, with 1% F127, 100 μM): 0.17
bacterial growth (optical density) (E. coli, (EC); T = 0 HOUR, with 1% Mx, 25 μM): 0.21
bacterial growth (optical density) (E. coli, (EC); T = 0 HOUR, with 1% Mx, 50 μM): 0.20
bacterial growth (optical density) (E. coli, (EC); T = 0 HOUR, with 1% Mx, 100 μM): 0.20
bacterial growth (optical density) (E. coli, (EC); T = 0 HOUR, with 1% SLES, 25 μM): 0.22
bacterial growth (optical density) (E. coli, (EC); T = 0 HOUR, with 1% SLES, 50 μM): 0.18
bacterial growth (optical density) (E. coli, (EC); T = 0 HOUR, with 1% SLES, 100 μM): 0.15
bacterial growth (optical density) (E. coli, (EC); T = 0 HOUR, with 1% Tt, 25 μM): 0.22
bacterial growth (optical density) (E. coli, (EC); T = 0 HOUR, with 1% Tt, 50 μM): 0.15
bacterial growth (optical density) (E. coli, (EC); T = 0 HOUR, with 1% Tt, 100 μM): 0.14
bacterial growth (optical density) (E. coli, (EC); T = 20 HOUR, NO SURF, 25 μM): 0.20
bacterial growth (optical density) (E. coli, (EC); T = 20 HOUR, NO SURF, 50 μM): 0.16
bacterial growth (optical density) (E. coli, (EC); T = 20 HOUR, NO SURF, 100 μM): 0.16
bacterial growth (optical density) (E. coli, (EC); T = 20 HOUR, with 1% C12TAB, 25 μM): 0.27
bacterial growth (optical density) (E. coli, (EC); T = 20 HOUR, with 1% C12TAB, 50 μM): 0.26
bacterial growth (optical density) (E. coli, (EC); T = 20 HOUR, with 1% C12TAB, 100 μM): 0.26
bacterial growth (optical density) (E. coli, (EC); T = 20 HOUR, with 1% F127, 25 μM): 0.15
bacterial growth (optical density) (E. coli, (EC); T = 20 HOUR, with 1% F127, 50 μM): 0.13
bacterial growth (optical density) (E. coli, (EC); T = 20 HOUR, with 1% F127, 100 μM): 0.14
bacterial growth (optical density) (E. coli, (EC); T = 20 HOUR, with 1% Mx, 25 μM): 0.32
bacterial growth (optical density) (E. coli, (EC); T = 20 HOUR, with 1% Mx, 50 μM): 0.28
bacterial growth (optical density) (E. coli, (EC); T = 20 HOUR, with 1% Mx, 100 μM): 0.25
bacterial growth (optical density) (E. coli, (EC); T = 20 HOUR, with 1% SLES, 25 μM): 0.08
bacterial growth (optical density) (E. coli, (EC); T = 20 HOUR, with 1% SLES, 50 μM): 0.08
bacterial growth (optical density) (E. coli, (EC); T = 20 HOUR, with 1% SLES, 100 μM): 0.06
bacterial growth (optical density) (E. coli, (EC); T = 20 HOUR, with 1% Tt, 25 μM): 0.09
bacterial growth (optical density) (E. coli, (EC); T = 20 HOUR, with 1% Tt, 50 μM): 0.07
bacterial growth (optical density) (E. coli, (EC); T = 20 HOUR, with 1% Tt, 100 μM): 0.07

IC50 [2]: 4 to 25 µM
SMILES: CC[C@H](C)[C@H](NC(=O)[C@H](CCCN)NC(=O)[C@H](CCCN)NC(=O)[C@@H](NC(=O)[C@@H](NC(=O)[C@H](CCCN)NC(=O)[C@H](CCCN)NC(=O)[C@@H](NC(=O)[C@@H](NC(=O)[C@H](CCCN)NC(=O)[C@H](CCCN)NC(=O)[C@@H](NC(=O)[C@@H](NC(=O)CN)[C@@H](C)CC)[C@@H](C)CC)[C@@H](C)CC)[C@@H](C)CC)[C@@H](C)CC)[C@@H](C)CC)C(N)=O [GO, G(IIOO)3 I-NH2] (H-GII[Orn][Orn]II[Orn][Orn]II[Orn][Orn]I-NH2)
viability at 24 h, 5 µM [1]: 101%
viability at 24 h, 25 µM [1]: 98%
viability at 24 h, 50 µM [1]: 95%
viability at 24 h, 100 µM [1]: 88%
viability at 48 h, 5 µM [1]: 95%
viability at 48 h, 25 µM [1]: 92%
viability at 48 h, 50 µM [1]: 83%
viability at 48 h, 100 µM [1]: 75%
viability at 72 h, 5 µM [1]: 90%
viability at 72 h, 25 µM [1]: 82%
viability at 72 h, 50 µM [1]: 78%
viability at 72 h, 100 µM [1]: 70%
viability at 24 h, 5 µM (in vitro): 95%
viability at 24 h, 25 µM (in vitro): 91%
viability at 24 h, 50 µM (in vitro): 88%
viability at 24 h, 100 µM (in vitro): 83%
viability at 48 h, 5 µM (in vitro): 91%
viability at 48 h, 25 µM (in vitro): 85%
viability at 48 h, 50 µM (in vitro): 81%
viability at 48 h, 100 µM (in vitro): 75%
viability at 72 h, 5 µM (in vitro): 85%
viability at 72 h, 25 µM (in vitro): 80%
viability at 72 h, 50 µM (in vitro): 75%
viability at 72 h, 100 µM (in vitro): 65%

SMILES: CCCCCCCCCCCCOCCOCCOCCOCCOCCO [Helix C12E5, Pentaethylene glycol monododecyl ether]
MTT results (relative MTT reading) ([3]; human, 1 day, 0.5 %): 0.01
MTT results (relative MTT reading) ([3]; human, 2 day, 0.5 %): 0.01
MTT results (relative MTT reading) ([3]; human, 3 day, 0.5 %): 0.01

SMILES: CCCCCCCCCCCCOCCOCCOCCOCCOCCOCCO [Helix C12E6, Hexaethylene glycol monododecyl ether]
MTT results (relative MTT reading) ([3]; human, 1 day, 1 %): 0.01
MTT results (relative MTT reading) ([3]; human, 2 day, 1 %): 0.01
MTT results (relative MTT reading) ([3]; human, 3 day, 1 %): 0.01

SMILES: CCCCCCCCCCCCOS(=O)(=O)[O-].[Na+] [SDS, Sodium dodecyl sulphate]
MTT results (relative MTT reading) ([3]; HDFa, surfactant 1%, Day 1): 0.01
MTT results (relative MTT reading) ([3]; HDFa, surfactant 1%, Day 2): 0.01
MTT results (relative MTT reading) ([3]; HDFa, surfactant 1%, Day 3): 0.01

From patent US9745348B2 (The University of Manchester, priority 2011, dated 2017)
